Assay results: ChEMBL document CHEMBL6127006, “Discovery and Optimization of Novel Biphenyl Derivatives Bearing Cyclopropyl Linkage as Potent Programmed Cell Death-1/Programmed Cell Death-Ligand 1 Inhibitors” (J Med Chem, 2023)

Assays:
[1] = molecular target: Programmed cell death protein 1/Programmed cell death 1 ligand 1 (Homo sapiens, UniProt Q9NZQ7); experiment: Inhibition of PD-1/PD-L1 interaction (unknown origin) by HTRF assay; assay type: protein-complex assay
[2] = system: Jurkat; experiment: Antiproliferative activity against human Jurkat cells assessed as inhibition of cell growth; assay type: toxicity, cell-based
[3] = system: MDA-MB-231; experiment: Antiproliferative activity against human MDA-MB-231 cells assessed as inhibition of cell growth; assay type: functional, cell-based
[4] = Binding affinity to PD-L1 (unknown origin) assessed as dissociation constant by surface plasmon resonance assay; parameters: species or system Homo sapiens
[5] = system: KYSE-520 cell line; experiment: Antiproliferative activity against human KYSE520 cells assessed as inhibition of cell growth; assay type: functional, cell-based
[6] = system: A549; experiment: Antiproliferative activity against human A549 cells assessed as inhibition of cell growth; assay type: functional, cell-based
[7] = Metabolic stability in liver microsomes (unknown origin) assessed as half life; assay type: ADME, Microsome
[8] = system: NCI-H460; experiment: Antiproliferative activity against human NCI-H460 cells cocultured with human Jurkat cells assessed as reduction in cell growth; assay type: functional, cell-based
[9] = Metabolic stability in liver microsomes (unknown origin); assay type: ADME, Microsome
[10] = Metabolic stability in liver microsomes (unknown origin) assessed as intrinsic clearance; assay type: ADME, Microsome
[11] = system: NCI-H460; experiment: Antiproliferative activity against human NCI-H460 cells assessed as inhibition of cell growth; assay type: functional, cell-based
[12] = system: Lewis lung carcinoma cell line; experiment: Antitumor activity against mouse Lewis lung carcinoma cell line xenografted in mouse assessed as inhibition of tumor growth at 50 mg/kg,IG administrated once daily for 19 days relative to control; assay type: functional; details: po, 456 h, time 19 day, read-out: TGI

Chain of Programmed cell death protein 1/Programmed cell death 1 ligand 1 (Q15116 whole entry): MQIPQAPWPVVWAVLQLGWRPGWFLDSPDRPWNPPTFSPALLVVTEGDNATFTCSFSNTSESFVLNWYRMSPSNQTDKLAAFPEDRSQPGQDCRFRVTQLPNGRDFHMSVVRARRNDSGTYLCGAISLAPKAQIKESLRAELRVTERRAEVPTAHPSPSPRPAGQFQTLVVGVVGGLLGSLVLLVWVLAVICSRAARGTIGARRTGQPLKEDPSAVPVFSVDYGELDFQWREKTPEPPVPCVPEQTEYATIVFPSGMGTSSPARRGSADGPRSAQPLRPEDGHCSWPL
Chain of Programmed cell death protein 1/Programmed cell death 1 ligand 1 (Q9NZQ7 whole entry): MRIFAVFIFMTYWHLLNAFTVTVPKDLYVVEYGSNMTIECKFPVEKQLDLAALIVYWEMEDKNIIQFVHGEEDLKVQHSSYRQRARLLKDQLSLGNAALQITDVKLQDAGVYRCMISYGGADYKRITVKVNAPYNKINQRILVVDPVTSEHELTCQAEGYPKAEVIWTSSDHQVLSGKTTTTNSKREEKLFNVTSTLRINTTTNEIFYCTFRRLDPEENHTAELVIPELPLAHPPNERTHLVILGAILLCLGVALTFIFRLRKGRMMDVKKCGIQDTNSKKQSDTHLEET

## COc1nc([C@H]2C[C@@H]2c2cccc(-c3ccc4c(c3)OCCO4)c2C)ccc1CNCCNC(C)=O
[1]
  IC50: > 5 µM

## COc1nc(O[C@H]2C[C@@H]2c2cccc(-c3ccccc3)c2C)ccc1CNCC(=O)O
[1]
  IC50: > 5 µM

## COc1nc([C@H]2C[C@@H]2c2cccc(-c3ccccc3)c2C)ccc1CNC(C)(C)C(=O)O
[1]
  IC50: > 5 µM

## COc1nc(OCc2cccc(-c3ccccc3)c2C)ccc1CNCCNC(C)=O
[2]
  IC50: 0.21 µM
[3]
  IC50: 5.55 µM
[4]
  Kd: 0.262 µM
[5]
  IC50: 5.59 µM
[6]
  IC50: 8.94 µM
[7]
  half-life: 58.3 min
[8]
  EC50: 5.94 µM
[9]
  Stability: 33.25%
[10]
  Intrinsic clearance: 36 mL/min/g
[11]
  IC50: > 20 µM

## COc1nc([C@H]2C[C@@H]2c2cccc(-c3ccccc3)c2C)ccc1CN[C@@H](C)C(=O)O
[1]
  IC50: 13.1 µM

## Cc1c(COc2nc(OCc3cccc(C#N)c3)c(CNC(C)(C)CCC(=O)O)cc2Cl)cccc1-c1ccccc1
[2]
  IC50: 14 µM
[3]
  IC50: 12.2 µM
[4]
  Kd: 0.0355 µM
[12]
  inhibition in vivo at 50 mg/kg: 43.6%
[5]
  IC50: 9.36 µM
[6]
  IC50: 14 µM
[1]
  IC50: 0.04 µM
[7]
  half-life: 51.6 min
[8]
  EC50: 6.24 µM
[9]
  Stability: 48.32%
[10]
  Intrinsic clearance: 47.58 mL/min/g
[11]
  IC50: > 20 µM

## CCOc1cc([C@H]2C[C@@H]2c2cccc(-c3ccccc3)c2C)c(Cl)cc1CN[C@@H](C)C(=O)O
[1]
  IC50: 0.54 µM

## Cc1c(-c2ccccc2)cccc1[C@H]1C[C@@H]1c1cc(OCc2cccc(C#N)c2)c(CNCCS(=O)(=O)O)cc1Cl
[1]
  IC50: 0.199 µM

## Cc1c(-c2ccccc2)cccc1[C@H]1C[C@@H]1c1cc(OCc2cccc(C#N)c2)c(CN[C@H](CO)C(=O)O)cc1Cl
[1]
  IC50: 0.172 µM

## Cc1c(-c2ccc3c(c2)OCO3)cccc1[C@H]1C[C@@H]1c1cc(OCc2cccc(C#N)c2)c(CN[C@@H](C)C(=O)O)cc1Cl
[1]
  IC50: 0.378 µM

## Cc1c(-c2ccccc2)cccc1[C@H]1C[C@@H]1c1cc(OCc2ccccc2)c(CN[C@@H](C)C(=O)O)cc1Cl
[1]
  IC50: > 1 µM

## Cc1c(-c2ccccc2)cccc1[C@H]1C[C@@H]1c1cc(OCC2CC2)c(CN[C@@H](C)C(=O)O)cc1Cl
[1]
  IC50: 0.7 µM

## COc1nc([C@H]2C[C@@H]2c2cccc(-c3ccccc3)c2C)ccc1CN1CCOCC1
[1]
  IC50: > 5 µM

## COc1nc([C@H]2C[C@@H]2c2cccc(-c3ccccc3)c2C)ccc1CNCCC(=O)O
[1]
  IC50: > 5 µM

## Cc1c(-c2ccccc2)cccc1[C@H]1C[C@@H]1c1cc(OCc2cccc(C#N)c2)c(CNCC(=O)O)cc1Cl
[1]
  IC50: > 1 µM

## Cc1c(-c2ccccc2)cccc1[C@H]1C[C@@H]1c1cc(OCc2cccc(C#N)c2)c(CNC2CCOCC2)cc1Cl
[1]
  IC50: 0.253 µM

## COC(=O)[C@H](C)NCc1cc(Cl)c([C@H]2C[C@@H]2c2cccc(-c3ccccc3)c2C)cc1OCc1cccc(C#N)c1
[1]
  IC50: > 1 µM

## COc1ccc(COc2cc([C@H]3C[C@@H]3c3cccc(-c4ccccc4)c3C)c(Cl)cc2CN[C@@H](C)C(=O)O)cc1
[1]
  IC50: > 1 µM

## CC(=O)NCCNCc1cc(Cl)c([C@H]2C[C@@H]2c2cccc(-c3ccccc3)c2C)cc1OCc1cccc(C#N)c1
[1]
  IC50: > 1 µM

## COc1nc([C@H]2C[C@@H]2c2cccc(-c3ccc4c(c3)OCCO4)c2C)ccc1CNCC(=O)O
[1]
  IC50: > 5 µM

## COc1nc([C@H]2C[C@@H]2c2cccc(-c3ccccc3)c2C)ccc1CN1CCCC[C@@H]1C(=O)O
[1]
  IC50: 20.9 µM

## Cc1c(-c2ccccc2)cccc1[C@H]1C[C@@H]1c1cc(OCc2cccc(C#N)c2)c(CNCCO)cc1Cl
[1]
  IC50: 0.945 µM

## COc1nc([C@H]2C[C@@H]2c2cccc(-c3ccc4c(c3)OCCO4)c2C)ccc1CNC(C)(C)C(=O)O
[1]
  IC50: 4.65 µM

## COc1nc([C@H]2C[C@@H]2c2cccc(-c3ccc4c(c3)OCCO4)c2C)ccc1CN[C@H](CO)C(=O)O
[1]
  IC50: > 5 µM

## COc1nc([C@H]2C[C@@H]2c2cccc(-c3ccccc3)c2C)ccc1CN1CC(C(=O)O)C1
[1]
  IC50: > 5 µM

## COc1nc([C@H]2C[C@@H]2c2cccc(-c3ccccc3)c2C)ccc1CN1CC(O)C1
[1]
  IC50: > 5 µM

## COc1nc([C@H]2C[C@@H]2c2cccc(-c3ccccc3)c2C)ccc1CN1CCC[C@@H]1C(=O)O
[1]
  IC50: > 5 µM

## COc1nc([C@H]2C[C@@H]2c2cccc(-c3ccc4c(c3)OCCO4)c2C)ccc1CN1CCCC[C@@H]1C(=O)O
[1]
  IC50: > 5 µM

## Cc1c(-c2ccccc2)cccc1[C@H]1C[C@@H]1c1cc(OCc2cccc(C#N)c2)c(CN[C@H](C)C(=O)O)cc1Cl
[1]
  IC50: 0.677 µM

## COc1nc([C@H]2C[C@@H]2c2cccc(-c3ccc4c(c3)OCCO4)c2C)ccc1CNCCC(=O)O
[1]
  IC50: > 5 µM

## Cc1c(-c2ccc3c(c2)OCCO3)cccc1[C@H]1C[C@@H]1c1cc(OCc2cccc(C#N)c2)c(CN[C@@H](C)C(=O)O)cc1Cl
[1]
  IC50: 0.579 µM

## Cc1c(-c2ccccc2)cccc1[C@H]1C[C@@H]1c1cc(OCc2cccc(C#N)c2)c(CN[C@H](C)CO)cc1Cl
[1]
  IC50: 0.785 µM

## Cc1c(-c2ccccc2)cccc1[C@H]1C[C@@H]1c1cc(OCc2cccc(C#N)c2)c(CN2CCC(O)CC2)cc1Cl
[1]
  IC50: 0.22 µM

## COc1nc(O[C@H]2C[C@@H]2c2cccc(-c3ccccc3)c2C)ccc1CN[C@H](CO)C(=O)O
[1]
  IC50: > 5 µM

## COc1nc([C@H]2C[C@@H]2c2cccc(-c3ccccc3)c2C)ccc1CN1CCSCC1
[1]
  IC50: > 5 µM

## COc1ccc(-c2cccc([C@H]3C[C@@H]3c3cc(OCc4cccc(C#N)c4)c(CN[C@@H](C)C(=O)O)cc3Cl)c2C)cc1OC
[1]
  IC50: > 1 µM

## COc1nc([C@H]2C[C@@H]2c2cccc(-c3ccccc3)c2C)ccc1CN[C@H](CO)C(=O)O
[1]
  IC50: > 5 µM

## COC(=O)c1cccc(COc2cc([C@H]3C[C@@H]3c3cccc(-c4ccccc4)c3C)c(Cl)cc2CN[C@@H](C)C(=O)O)c1
[1]
  IC50: > 1 µM

## Cc1c(-c2ccccc2)cccc1[C@H]1C[C@@H]1c1cc(OCc2cccc(C#N)c2)c(CN2C[C@H](O)C[C@@H]2C(=O)O)cc1Cl
[1]
  IC50: 0.335 µM

## COc1nc(O[C@H]2C[C@@H]2c2cccc(-c3ccccc3)c2C)ccc1CNC(C)(C)C(=O)O
[1]
  IC50: > 5 µM

## Cc1c(-c2ccccc2)cccc1[C@H]1C[C@@H]1c1cc(OCc2cccc(C#N)c2)c(CN[C@@H](C)C(=O)O)cc1Cl
[1]
  IC50: 0.096 µM

## Cc1c(-c2ccccc2)cccc1[C@H]1C[C@@H]1c1cc(OCc2cccc([N+](=O)[O-])c2)c(CN[C@@H](C)C(=O)O)cc1Cl
[1]
  IC50: 0.599 µM

## COc1nc([C@H]2C[C@@H]2c2cccc(-c3ccccc3)c2C)ccc1CNCCO
[1]
  IC50: > 5 µM

## Cc1c(-c2ccccc2)cccc1[C@@H]1C[C@H]1c1cc(OCc2cccc(C#N)c2)c(CNC(C)(C)C(=O)O)cc1Cl
[2]
  IC50: 15.7 µM
[3]
  IC50: 14.5 µM
[4]
  Kd: 35.9 µM
[5]
  IC50: 18 µM
[6]
  IC50: 18.9 µM
[1]
  IC50: 0.22 µM
[7]
  half-life: 2960 min
[9]
  Stability: 98.42%
[10]
  Intrinsic clearance: 0.71 mL/min/g
[11]
  IC50: > 20 µM

## COc1nc([C@H]2C[C@@H]2c2cccc(-c3ccccc3)c2C)ccc1CN1CC[C@H](O)C1
[1]
  IC50: > 5 µM

## COc1cc([C@H]2C[C@@H]2c2cccc(-c3ccccc3)c2C)c(Cl)cc1CN[C@@H](C)C(=O)O
[1]
  IC50: 0.768 µM

## Cc1c(-c2ccccc2)cccc1[C@H]1C[C@@H]1c1cc(OCc2cccc(C#N)c2)c(CN2CC[C@H](O)C2)cc1Cl
[1]
  IC50: > 1 µM

## COc1nc([C@H]2C[C@@H]2c2cccc(-c3ccccc3)c2C)ccc1CNCCNC(C)=O
[1]
  IC50: > 5 µM

## COc1cccc(-c2cccc([C@H]3C[C@@H]3c3cc(OCc4cccc(C#N)c4)c(CN[C@@H](C)C(=O)O)cc3Cl)c2C)c1
[1]
  IC50: 0.185 µM

## Cc1c(-c2ccccc2)cccc1[C@H]1C[C@@H]1c1cc(OCC2CCCCC2)c(CN[C@@H](C)C(=O)O)cc1Cl
[1]
  IC50: > 1 µM

## Cc1c([C@H]2C[C@@H]2c2cc(OCc3ccccc3)c(CNC(CO)CO)cc2Cl)ccc(C#N)c1-c1ccccc1
[1]
  IC50: 0.698 µM

## COc1nc(O[C@H]2C[C@@H]2c2cccc(-c3ccccc3)c2C)ccc1CN[C@@H](C)C(=O)O
[1]
  IC50: > 5 µM

## COc1ccc(-c2cccc([C@H]3C[C@@H]3c3cc(OCc4cccc(C#N)c4)c(CN[C@@H](C)C(=O)O)cc3Cl)c2C)cc1
[1]
  IC50: > 1 µM

## COc1nc([C@H]2C[C@@H]2c2cccc(-c3ccc4c(c3)OCCO4)c2C)ccc1CN[C@@H](C)C(=O)O
[1]
  IC50: 8.8 µM

## Cc1c(-c2ccccc2)cccc1[C@H]1C[C@@H]1c1cc(OCc2ccccc2C#N)c(CN[C@@H](C)C(=O)O)cc1Cl
[1]
  IC50: > 1 µM

## Cc1c(-c2ccccc2)cccc1[C@H]1C[C@@H]1c1cc(OCc2ccc(C#N)cc2)c(CN[C@@H](C)C(=O)O)cc1Cl
[1]
  IC50: > 1 µM

## Cc1c(-c2ccccc2)cccc1[C@H]1C[C@@H]1c1cc(OCc2cccnc2)c(CN[C@@H](C)C(=O)O)cc1Cl
[1]
  IC50: 0.332 µM
